ChEMBL document CHEMBL4765305, “Elephantopinolide A-P, germacrane-type sesquiterpene lactones from Elephantopus scaber induce apoptosis, autophagy and G2/M phase arrest in hepatocellular carcinoma cells” (Eur J Med Chem, 2020)

Assays:
HepG2 [1] = assay: Anti-hepatoma activity against human HepG2 cells assessed as cell growth inhibition by MTT assay; format: functional, cell-based
Hep 3B2 [2] = assay: Anti-hepatoma activity against human Hep3B cells assessed as cell growth inhibition by MTT assay; format: functional, cell-based
Hep 3B2 [3] = assay: Induction of autophagy in human Hep3B cells by MDC staining based flow cytometry analysis (Rvb =3.52%); format: functional
HepG2 [4] = assay: Induction of autophagy in human HepG2 cells by MDC staining based flow cytometry analysis (Rvb =4.46%); format: functional

SMILES | IC50 (HepG2 [1]) [µM] | IC50 (Hep 3B2 [2]) [µM] | Activity (Hep 3B2 [3]) [%] | Activity (HepG2 [4]) [%]
C=C(C)C(=O)O[C@H]1CC2=C[C@H](C/C(C)=C/[C@H]3OC(=O)[C@@H](C)C13)OC2=O (stereo partly specified) | > 20 | > 20 | – | –
CNC(=O)c1cc(Oc2ccc(NC(=O)Nc3ccc(Cl)c(C(F)(F)F)c3)cc2)ccn1 [SORAFENIB] | 9.75 | 5.2 | 7.29 | 4.1
